Earlier results as cited in paper PMC9370779, “Traditional Medicinal Uses, Phytochemistry, Biological Properties, and Health Applications of Vitex sp” (Plants, 2022).
Entries after “also recorded” stand apart in the source; their conditions may differ. Read-outs that look alike come from different tables or passages of the source. Each block holds one compound with its values, some of them ahead of it.

Assays:
[1] = tested on: hepatocyte-derived carcinoma (HuH-7) cells; parameters: method as in PMID 18595136
[2] = tested on: lipopolysaccharide-induced nitric oxide (NO) production; parameters: method as in doi:10.1002/hlca.201600022
[3] = read-out: antioxidant effects, IC50 value
NO production = tested on: NO production; parameters: method as in PMID 27535293; conditions: up to a concentration of 100 µM
[4] = parameters: method as in PMID 10579867
[5] = tested on: NADP(H); quinone oxireductase type1 (QR1); parameters: method as in PMID 23662135
[6] = tested on: human nasopharyngeal carcinoma (CNE1) cell line; parameters: method as in PMID 28453270; conditions: read-out: cytotoxic activity against CNE1, IC50 value
HCT 116 cells = tested on: HCT 116 cells; parameters: method as in PMID 28602939
[7] = parameters: method as in PMID 28602939; conditions: cell line not stated
Topoisomerase-1 (Top1) = tested on: Topoisomerase-1 (Top1); parameters: method as in PMID 28602939
[8] = tested on: nuclear factor-kappa B (NF-κB) pathway in human embryonic kidney (HEK 293) cells; parameters: method as in PMID 29996686; conditions: TNF-α-induced
[9] = tested on: NO production in LPS-induced murine macrophage (RAW 264.7) cells; parameters: method as in PMID 29429059; conditions: LPS-induced RAW 264.7 macrophages, up to 100 μM
IL-6 = tested on: IL-6; parameters: method as in PMID 31302252
[10] = tested on: inducible nitric oxide synthase (iNOS); parameters: method as in PMID 31302252
[11] = tested on: interleukin 1-beta (IL-1β); parameters: method as in PMID 31302252
NF-κB signal pathways = tested on: NF-κB signal pathways; parameters: method as in PMID 31302252
[12] = tested on: LPS-induced NO production; parameters: method as in PMID 31302252
COX-2 = tested on: COX-2; parameters: method as in PMID 31302252
Musca domestica larvae = tested on: Musca domestica larvae; parameters: method as in doi:10.1016/S0031-9422(00)94985-9
Musca = tested on: Musca; parameters: method as in PMID 12444704
[13] = parameters: method as in PMID 24965780
[14] = tested on: LPS-induced NO production in murine microglia (BV-2) cells; parameters: method as in PMID 27118321
[15] = parameters: method as in PMID 27118321; conditions: ABTS stated for 131
[16] = tested on: human liver carcinoma (HepG2) cell lines; parameters: method as in PMID 27118321
[17] = parameters: method as in PMID 29343985; conditions: mice, acetic acid abdomen constriction
[18] = parameters: method as in PMID 29343985; conditions: mice, carrageenan paw oedema

Compound: C[C@]1(O)CC[C@@H]2C(C(=O)O)=CO[C@@H](O[C@@H]3O[C@H](CO)[C@@H](O)[C@H](O)[C@H]3OC(=O)c3ccc(O)cc3)[C@@H]21 [Compound 1, 2-p-hydroxybenzoyl mussaenosidic acid]
protective effects against CCl4-induced toxicity in HuH-7 cells and oxidative stress [1]: Showed protective effects against CCl4-induced toxicity in HuH-7 cells and oxidative stress

Compound: O=C(OCC1=CC(=O)C2C=CO[C@@H](O[C@@H]3O[C@H](CO)[C@@H](O)[C@H](O)[C@H]3O)C12)c1ccc(O)cc1 (some centres unmarked) [Compound 18, agnusoside]
anti-inflammatory activity, LPS-induced NO production [2]: moderate anti-inflammatory activity; also recorded: Exhibited moderate anti-inflammatory activity using NO production induced by lipopolysaccharide

inhibitory effects on α-glucosidase (α-glucosidase): moderate inhibitory effects
IC50 [3]: > 20 µM
Compound: C=C1CC[C@@H]2C(C(=O)O)=CO[C@@H](O[C@@H]3O[C@H](COC(=O)c4ccc(O)cc4)[C@@H](O)[C@H](O)[C@H]3O)[C@H]12 [Compound 19, vitexnegheteroin K]

inhibitory effects on α-glucosidase (α-glucosidase): moderate inhibitory effects
IC50 [3]: > 20 µM
Compound: C[C@@H]1CC[C@@H]2C(C(=O)O)=CO[C@@H](O[C@@H]3O[C@H](COC(=O)c4ccc(O)cc4)[C@@H](O)[C@H](O)[C@H]3O)[C@H]12 [Compound 20, vitexnegheteroin L]

Compound: O=C(OCC1=C[C@@H](O)[C@@H]2C=CO[C@@H](O[C@@H]3O[C@H](COC(=O)c4ccc(O)cc4)[C@@H](O)[C@H](O)[C@H]3O)[C@H]12)c1ccc(O)cc1 [Compound 21, 10-p-hydroxybenzoyl-6β-hydroxyiridoid 1-O-β-D-(6′-O-p-hydroxybenzoyl)glucopyranoside]
inhibition of NO production (NO production): did not inhibit; also recorded: No inhibitory activity on NO production

Compound: COC1CC2(CCC3(O2)C(C)CC(OC(C)=O)C2C(C)(C)CCCC23C)C(OC)O1 (centres unmarked) [Compound 32]
antioxidant activity [4]: did not exhibit any activities

Compound: CC(=O)OC1CC(C)C(O)(CCC2=CC(=O)NC2)C2(C)CCCC(C)(C)C12 (centres unmarked) [Compound 55, vitexlactam C]
QR1 induction activity [5]: moderate results; also recorded: Compound 55 showed moderate result on NADP(H); quinone oxireductase type1 (QR1) induction activity

Compound: C[C@@H]1CC[C@H]2C(C)(C)CCC[C@]2(C)[C@@]1(O)CCc1cc[nH]c1C#N [Compound 79, vitepyrroloid A]
IC50 [6]: 8.7 µM

Compound: C=CC(C)(O)CCC1(C)C2=C(CC(OCC)C1C)C(C)(C)CCC2 (centres unmarked) [Compound 90]
cytotoxicity against HCT 116 cells (rank) (HCT 116 cells): most cytotoxic
cytotoxicity (in words) [7]: moderate cytotoxicity in the micromolar range; also recorded: moderate cytotoxicity at micromolar range
Top1 inhibition compared with camptothecin (CPT) (Topoisomerase-1 (Top1)): equipotent

Compound: CCOC1C=C(CCC2(O)C(C)CC(OC(C)=O)C3C(C)(C)CCCC32C)C(=O)O1 (centres unmarked) [Compound 94, viterotulin C]
inhibition rates of NF-κB activation [8]: 66.09 ± 11.49

Compound: CC(=O)OC1CC(C)C(O)(CCC2=CC(=O)OC2)C2(C)CCCC(C)(C)C12 (centres unmarked) [Compound 95, vitexilactone D]
inhibition rates of NF-κB activation [8]: 57.30 ± 15.70

Compound: C[C@@H]1C[C@@H](O)C2C(C)(C)[C@@H](O[C@@H]3O[C@H](CO)[C@@H](O)[C@H](O)[C@H]3O)CC[C@]2(C)[C@@]1(O)CCC1=CCOC1=O (stereo partly drawn) [Compound 96, (3S,5S,6S,8R,9R,10S)-3,6,9-trihydroxy-13(14)-labdean-16,15-olide-3-O-β-D-gluco-pyranoside]
inhibitory effect on NO production (in words) [9]: No inhibitory activity on NO production in LPS-induced RAW 264.7 macrophages up to concentration of 100 μM

IC50 ([12]; read-out: inhibition of NO production, IC50 value): 15.8 µM
Compound: CC1=C(CCC2=CCOC2=O)[C@@]2(C)CC[C@H](O)C(C)(C)[C@@H]2CC1 [Compound 98, (3S,5R,10S)-3-hydroxy-labd-8,13-dien-16,15-olide]
inhibition of IL-6 level (IL-6): significant inhibition
inhibition of iNOS [10]: able to inhibit; also recorded: inhibition on iNOS, COX-2 and NF-κB signal pathways
inhibition of IL-1β level [11]: significant inhibition
inhibition of NF-κB signal pathways (NF-κB signal pathways): able to inhibit; also recorded: inhibition on iNOS, COX-2 and NF-κB signal pathways
inhibition of LPS-induced NO production (in words) [12]: strong
inhibition of COX-2 (COX-2): able to inhibit; also recorded: inhibition on iNOS, COX-2 and NF-κB signal pathways

Compound: CC(C)(O)C(O)CC[C@](C)(O)[C@H]1CC[C@@]2(O)C3=CC(=O)[C@@H]4C[C@@H](O)[C@@H](O)C[C@]4(C)C3CC[C@]12C (some centres unmarked) [Compound 103, pinnatasterone]
activity against Musca domestica larvae (Musca domestica larvae): Exhibited weak activity against M. domestica larvae

Compound: CC(C)(O)CCC[C@](C)(O)C1CC[C@@]2(O)C3=CC(=O)[C@@H]4C[C@@H](O)[C@@H](O)C[C@]4(C)C3[C@H](O)C[C@]12C (some centres unmarked) [Compound 110, scabrasterone]
molting activity in the Musca bioassay (Musca): very weak molting activity

Compound: COc1cc([C@H]2c3c(cc(OC)c(O)c3OC)C=C(C=O)[C@@H]2CO)ccc1O [Compound 128, vitexdoin F]
DPPH radical-scavenging activity compared with ascorbic acid [13]: Exhibited stronger activity than ascorbic acid using DPPH radical-scavenging assays

Compound: COc1cc(C2c3cc(O)c(O)cc3C=C(C=O)C2COC2OC(CO)C(O)C(O)C2O)ccc1O (centres unmarked) [Compound 129, vitexnegheteroin E]
inhibition of LPS-induced NO production [14]: inhibitory activities
antioxidant activity [15]: antioxidant

Compound: COc1cc(C2c3c(cc(OC)c(O)c3OC)C=C(C=O)C2COC2OC(CO)C(O)C(O)C2O)ccc1O (centres unmarked) [Compound 130, vitexnegheteroin F]
cytotoxic activity against HepG2 cell lines [16]: moderate cytotoxic activity; also recorded: Exhibited moderate cytotoxic activities against human liver carcinoma (HepG2) cell lines

Compound: COC(=O)c1cccc(CCc2cc(=O)c3c(O)c(OC)ccc3o2)c1 [Compound 160]
antinociceptive action [17]: successful in reducing nociception and inflammation; also recorded: The derivatives from V. negundo L. were able to reduce inflammation, and nociception, and could be used as a potential source of antinociceptive and anti-inflammatory candidates
anti-inflammatory activity [18]: successful in reducing nociception and inflammation; also recorded: The derivatives from V. negundo L. were able to reduce inflammation, and nociception, and could be used as a potential source of antinociceptive and anti-inflammatory candidates

Compound: COc1ccc2oc(CC(O)c3cccc(C(=O)O)c3)cc(=O)c2c1O (centres unmarked) [Compound 161]
antinociceptive action [17]: successful in reducing nociception and inflammation; also recorded: The derivatives from V. negundo L. were able to reduce inflammation, and nociception, and could be used as a potential source of antinociceptive and anti-inflammatory candidates
anti-inflammatory activity [18]: successful in reducing nociception and inflammation; also recorded: The derivatives from V. negundo L. were able to reduce inflammation, and nociception, and could be used as a potential source of antinociceptive and anti-inflammatory candidates

Compound: CC(C(=O)O)c1ccc(-c2ccccc2)c(F)c1 (centres unmarked) [flurbiprofen]
symptoms of mastalgia (cyclic mastalgia, premenopausal women, V. agnus-castus fruit 40 mg): significant reduction
harmful effects (in vivo): no harmful effects
